This passage reports IC50 results from PubChem BioAssay AID651642 (Sanford-Burnham Center for Chemical Genomics, 2012).

What is called IC50 is the midpoint of a concentration-inhibition curve. Lower therefore signals greater potency in that assay.

One experiment deals with H9c2. Put plainly: protection of cardiomyocytes from stress damage, SAR follow-up, cell-based, panel, H9c2 and HL-1, H2O2, 2-deoxyglucose, ATP luminescence (AID 651642).
A further experiment has as its system HL-1. The experiment is described as above.
[1] abbreviates: H9c2/HL-1 cardiomyocyte 2-deoxyglucose damage, run 1, with 2-deoxyglucose.
Where [2] appears, read: H9c2/HL-1 cardiomyocyte 2-deoxyglucose damage, run 2, with 2-deoxyglucose.
[3] abbreviates: H9c2/HL-1 cardiomyocyte 2-deoxyglucose damage, run 3, with 2-deoxyglucose.
The mark [4] stands for this setting: H9c2/HL-1 cardiomyocyte 2-deoxyglucose damage, run 4, with 2-deoxyglucose.
Where [5] appears, read: H9c2/HL-1 cardiomyocyte H2O2 oxidative damage, run 1, with H2O2.
The mark [6] stands for this setting: H9c2/HL-1 cardiomyocyte H2O2 oxidative damage, run 2, with H2O2.
Setting [7] is: H9c2/HL-1 cardiomyocyte H2O2 oxidative damage, run 3, with H2O2.
[8] abbreviates: H9c2/HL-1 cardiomyocyte H2O2 oxidative damage, run 4, with H2O2.
Setting [9] is: H9c2/HL-1 cardiomyocyte 2-deoxyglucose damage, mean of runs, with 2-deoxyglucose, mean IC50 across panel.
Where [10] appears, read: H9c2/HL-1 cardiomyocyte H2O2 oxidative damage, mean of runs, with H2O2, mean IC50 across panel.

Turning to `COc1cc(-c2cc(C(=O)NCC(=O)Nc3ccc(C(C)=O)cc3)c3ccccc3n2)cc(OC)c1OC`, the concentration for half-maximal inhibition (IC50) with H9c2 (setting [1]) was above 79 µM; in the experiment on H9c2 (setting [2]), above 79 µM; in the experiment on H9c2 (setting [3]) it was 6.74 µM; with H9c2 (setting [4]), 8.41 µM; in the experiment with H9c2 (setting [5]) it was above 79 µM; in the experiment on H9c2 (setting [6]) it was above 79 µM. Also, the 50% inhibitory concentration (IC50) in the experiment with H9c2 (setting [7]) was 1.62 µM; with H9c2 (setting [8]), 1.71 µM; in the experiment on HL-1 (setting [1]), above 79 µM; in the experiment on HL-1 (setting [2]), above 79 µM; in the experiment with HL-1 (setting [3]), 6.28 µM; with HL-1 (setting [4]), 7.65 µM. The IC50 in the experiment on HL-1 (setting [5]) was above 79 µM; with HL-1 (setting [6]), above 79 µM; in the experiment on HL-1 (setting [7]) it was 7.43 µM; in the experiment on HL-1 (setting [8]), 9.32 µM.

For `CCOC(=O)c1cccc(NC(=O)CNC(=O)c2cc(-c3cc(OC)c(OC)c(OC)c3)nc3ccccc23)c1`, the IC50 in the experiment with H9c2 (setting [1]) is 8.17 µM; in the experiment with H9c2 (setting [2]) it was 9.67 µM; with H9c2 (setting [3]) it was above 79 µM; in the experiment with H9c2 (setting [4]) it was above 79 µM; in the experiment on H9c2 (setting [5]), 2.07 µM; in the experiment with H9c2 (setting [6]), 2.14 µM. Moreover, the IC50 with H9c2 (setting [7]) was above 79 µM; in the experiment with H9c2 (setting [8]) it was above 79 µM; in the experiment with HL-1 (setting [1]), 2.08 µM; with HL-1 (setting [2]), 2.42 µM; with HL-1 (setting [3]) it was above 79 µM; in the experiment on HL-1 (setting [4]), above 79 µM. Besides, the IC50 is 9.1 µM in the experiment with HL-1 (setting [5]), 17.9 µM with HL-1 (setting [6]), above 79 µM with HL-1 (setting [7]) and above 79 µM with HL-1 (setting [8]).

As to `CCOC(=O)c1cccc(NC(=O)c2cc(-c3cc(OC)c(OC)c(OC)c3)nc3ccc(Cl)cc23)c1`, the IC50 was above 79 µM with H9c2 (setting [9]); above 79 µM in the experiment with H9c2 (setting [1]); above 79 µM in the experiment with H9c2 (setting [2]); above 79 µM in the experiment with H9c2 (setting [3]); above 79 µM in the experiment on H9c2 (setting [4]); 3.38 µM with H9c2 (setting [5]). Moreover, the IC50 is 21.1 µM in the experiment with H9c2 (setting [6]); above 79 µM in the experiment with H9c2 (setting [7]); above 79 µM in the experiment on H9c2 (setting [8]); above 79 µM with HL-1 (setting [9]); above 79 µM in the experiment with HL-1 (setting [1]); above 79 µM in the experiment with HL-1 (setting [2]). The IC50 was above 79 µM in the experiment with HL-1 (setting [3]); above 79 µM in the experiment on HL-1 (setting [4]); above 79 µM with HL-1 (setting [5]); above 79 µM in the experiment with HL-1 (setting [6]); 1.79 µM with HL-1 (setting [7]); 4.09 µM in the experiment on HL-1 (setting [8]).

Consider `COc1ccc2c(c1OC)C(=O)N1c3ccccc3C(=O)N(Cc3ccc(F)cc3)C21` (stereo not drawn), for which the IC50 in the experiment on H9c2 (setting [9]), with H9c2 (setting [1]), in the experiment with H9c2 (setting [2]), in the experiment on H9c2 (setting [3]), in the experiment on H9c2 (setting [4]) and in the experiment on H9c2 (setting [5]) was above 79 µM throughout. Besides, the IC50 was 8.03 µM in the experiment on H9c2 (setting [6]); above 79 µM in the experiment on H9c2 (setting [7]); above 79 µM in the experiment on H9c2 (setting [8]); 19 µM in the experiment on HL-1 (setting [9]); 6.14 µM in the experiment on HL-1 (setting [1]); 10.7 µM in the experiment on HL-1 (setting [2]). Moreover, the concentration for half-maximal inhibition (IC50) in the experiment on HL-1 (setting [3]) was 17.7 µM; in the experiment with HL-1 (setting [4]), 41.3 µM; in the experiment on HL-1 (setting [10]) it was above 79 µM; in the experiment with HL-1 (setting [5]) it was above 79 µM; in the experiment with HL-1 (setting [6]), above 79 µM; in the experiment with HL-1 (setting [7]), above 79 µM. This compound also displayed an IC50 in the experiment on HL-1 (setting [8]) above 79 µM.

With `CCOC(=O)c1cccc(NC(=O)CNC(=O)c2cc(-c3cc(OC)c(OC)c(OC)c3)nc3ccc(C)cc23)c1`, the half-maximal inhibitory concentration (IC50) with H9c2 (setting [9]) was 2.67 µM; with H9c2 (setting [1]), 3.13 µM; in the experiment with H9c2 (setting [2]), 3.54 µM; with H9c2 (setting [3]) it was 1.85 µM; in the experiment with H9c2 (setting [4]), 2.18 µM; in the experiment on H9c2 (setting [10]) it was 0.665 µM. Moreover, the concentration for half-maximal inhibition (IC50) in the experiment with H9c2 (setting [5]) worked out at 0.726 µM; in the experiment on H9c2 (setting [6]), 0.842 µM; with H9c2 (setting [7]) it was 0.517 µM; in the experiment on H9c2 (setting [8]) it was 0.577 µM; in the experiment on HL-1 (setting [9]), 2.2 µM; with HL-1 (setting [1]), 1.1 µM. For the same compound, the IC50 in the experiment on HL-1 (setting [2]) turned out to be 1.45 µM; with HL-1 (setting [3]), 2.9 µM; with HL-1 (setting [4]), 3.35 µM; with HL-1 (setting [10]) it was 3.04 µM; in the experiment on HL-1 (setting [5]), 2.88 µM; in the experiment on HL-1 (setting [6]) it was 3.32 µM. Besides, the IC50 turned out to be 1.46 µM with HL-1 (setting [7]) and 4.48 µM in the experiment on HL-1 (setting [8]).

Consider `COc1ccc2c(c1OC)C(=O)N1c3ccccc3C(=O)N(Cc3ccccn3)C21` (stereo not drawn), for which the 50% inhibitory concentration (IC50) is above 79 µM in the experiment on H9c2 (setting [9]); above 79 µM in the experiment on H9c2 (setting [1]); above 79 µM in the experiment on H9c2 (setting [2]); above 79 µM with H9c2 (setting [3]); above 79 µM with H9c2 (setting [4]); 7.56 µM in the experiment with H9c2 (setting [5]). Also, the IC50 is 10.3 µM in the experiment with H9c2 (setting [6]); above 79 µM in the experiment with H9c2 (setting [7]); above 79 µM in the experiment with H9c2 (setting [8]); above 79 µM with HL-1 (setting [9]); above 79 µM in the experiment with HL-1 (setting [1]); above 79 µM in the experiment on HL-1 (setting [2]). In addition, the IC50 in the experiment on HL-1 (setting [3]), in the experiment with HL-1 (setting [4]), with HL-1 (setting [10]), in the experiment on HL-1 (setting [5]), in the experiment with HL-1 (setting [6]) and in the experiment with HL-1 (setting [7]) was above 79 µM each time. The same compound showed an IC50 with HL-1 (setting [8]) above 79 µM.
